These results are taken from patent publication US6696488B2, “(Hydroxyethyl)ureas as inhibitors of alzheimer's β-amyloid production” (The Brigham and Women's Hospital, Inc., priority 2000, dated 2004).

In assay [1] the test system is Aβ production in APP751-plus neo-transfected CHO cells. Put plainly: Inhibition of Aβ production in APP751-plus neo-transfected CHO cells, ELISA (Example 3). Type of assay: cell-based, Chinese hamster. The settings on record: Cricetulus griseus, 4 hours, 0.005 to 100 μM, 1% DMSO. The text has this:
Cell Lines, Compound Treatments, and ELISAs. Cell lines were Chinese hamster ovary (CHO) and SK-N-SH human neuroblastoma cells stably transfected with the 751- or 695-amino acid splicing variants of APP, respectively, and the neo gene, and human embryonic kidney (HEK) 293 cells carrying the same genes (APP695 plus neo) but with the K595N/M596L (“Swedish”) double mutation of APP. Xia W et al., J Biol Chem 272:7977-7982 (1997); Citron M et al., Proc Natl Acad Sci USA 93:13170-13175 (1996). Cells were grown to confluence in Dulbecco's modified Eagle's medium containing 200 μg/ml G418 (Gibco BRL). Stock concentrations of the (hydroxyethyl)urea compounds of the invention in DMSO were added to media to reach the final concentrations with 1% DMSO. Positive controls contained 1% DMSO alone. […] The reporter antibody was detected using 3,3′,5,5′-tetramethylbenzidine (Pierce), measuring at 455 nm for calculating Aβ levels and at 595 nm for normalization. […]
Transfected CHO cells were prepared and maintained as described in Example 2. […] Results were plotted as percent control Aβ produced versus (hydroxyethyl)urea compound concentration (μM), and (hydroxyethyl)urea compound concentrations at which production was inhibited by 50 percent (IC50) were determined.
Background: An ELISA detects its analyte on a solid surface through an enzyme-linked reagent.

For a further assay, the system named is Aβ42 production. Put plainly: Inhibition of Aβ42 production in APP-transfected cells, ELISA (Example 2). The settings on record: 4 hours, compared with total Aβ, FIG. 2. It is filed as cell-based. The text has this:
(§1) Cell Lines, Compound Treatments, and ELISAs. Cell lines were Chinese hamster ovary (CHO) and SK-N-SH human neuroblastoma cells stably transfected with the 751- or 695-amino acid splicing variants of APP, respectively, and the neo gene, and human embryonic kidney (HEK) 293 cells carrying the same genes (APP695 plus neo) but with the K595N/M596L (“Swedish”) double mutation of APP. Xia W et al., J Biol Chem 272:7977-7982 (1997); Citron M et al., Proc Natl Acad Sci USA 93:13170-13175 (1996). Cells were grown to confluence in Dulbecco's modified Eagle's medium containing 200 μg/ml G418 (Gibco BRL). Stock concentrations of the (hydroxyethyl)urea compounds of the invention in DMSO were added to media to reach the final concentrations with 1% DMSO. Positive controls contained 1% DMSO alone. […] The reporter antibody was detected using 3,3′,5,5′-tetramethylbenzidine (Pierce), measuring at 455 nm for calculating Aβ levels and at 595 nm for normalization.
(§2) Compound III-20 (shown above) or compound III-24 (identical to III-20 except R4 is L-phenylalanine O-methyl ester) was added over a range of concentrations (0.1-100 μM) to APP-transfected cells in culture as described. […] After 4 hours in culture, supernatants from test and control cultures were assayed by ELISA specific for Aβ peptides, and results were analyzed as percent total or specific Aβ produced compared to control.

Assay [2] deals with total Aβ peptide production. Put plainly: Inhibition of total Aβ peptide production in APP-transfected cells, ELISA (Example 2). It is filed as cell-based. The settings on record: 4 hours in culture, FIG. 1, read-out: concentration for 50 percent inhibition of total Aβ peptide production.
Excerpt: as §1, §2

Regarding `COC(=O)[C@H](CC(C)C)NC(=O)[C@H](CC(C)C)NC(=O)N(Cc1ccccc1)C[C@@H](O)[C@H](Cc1ccccc1)NC(=O)OC(C)(C)C` [FΨFLL], the IC50 in assay [1] was 500 nM; in assay [2], ~1000 nM. In addition, the “inhibitory effect on the production of Aβ42” value in the assay on Aβ42 production is reported as “closely followed the inhibition by compound III-20 of total Aβ production”.
